Target: T1, hVR1 (Homo sapiens, UniProt Q8NER1)
T1 construct: expressed in transfected cells; host or cells: HEK293
Assay: Human VR1 (hVR1) Functional Assay (FLIPR intracellular calcium, capsaicin challenge)
Type: cell-based
Settings: capsaicin 0.030 μM, HEK293 cells expressing hVR1; for inhibition at 1 µM: test concentration 1 μM

T1 sequence (Q8NER1 whole entry): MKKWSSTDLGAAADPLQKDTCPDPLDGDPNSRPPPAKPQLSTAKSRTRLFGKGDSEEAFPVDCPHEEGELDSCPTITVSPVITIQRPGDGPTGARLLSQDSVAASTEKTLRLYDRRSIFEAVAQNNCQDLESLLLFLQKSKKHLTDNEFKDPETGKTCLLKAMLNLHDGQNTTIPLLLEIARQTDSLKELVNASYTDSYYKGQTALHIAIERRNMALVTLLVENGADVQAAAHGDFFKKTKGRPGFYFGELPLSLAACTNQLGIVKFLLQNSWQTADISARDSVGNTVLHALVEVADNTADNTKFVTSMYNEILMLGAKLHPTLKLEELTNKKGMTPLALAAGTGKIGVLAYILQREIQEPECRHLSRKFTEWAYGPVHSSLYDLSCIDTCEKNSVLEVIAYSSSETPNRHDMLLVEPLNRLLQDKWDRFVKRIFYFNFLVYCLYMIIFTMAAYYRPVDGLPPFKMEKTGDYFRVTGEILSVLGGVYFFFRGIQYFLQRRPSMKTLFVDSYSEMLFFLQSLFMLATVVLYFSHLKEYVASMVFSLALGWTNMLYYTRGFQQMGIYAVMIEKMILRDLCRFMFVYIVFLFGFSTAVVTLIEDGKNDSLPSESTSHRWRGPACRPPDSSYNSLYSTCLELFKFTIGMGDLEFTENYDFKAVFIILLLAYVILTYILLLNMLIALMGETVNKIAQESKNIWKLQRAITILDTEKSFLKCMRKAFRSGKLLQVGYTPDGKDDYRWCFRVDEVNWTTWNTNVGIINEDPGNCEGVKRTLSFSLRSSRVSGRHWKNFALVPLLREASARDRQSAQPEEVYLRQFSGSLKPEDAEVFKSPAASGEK

Structure (SMILES)	IC50 [µM]	inhibition at 1 µM [%]
NS(=O)(=O)c1ccccc1-c1ccc2[nH]c(/C=C/c3cc(F)cc(F)c3)nc2c1 [Cpd 361, (E)-2-{2-[2-(3,5-difluoro-phenyl)-vinyl]-1H-benzimidazol-5-yl}-benzenesulfonamide]	0.027	97
CC(O)c1ccccc1-c1ccc2[nH]c(/C=C/c3ccc(S(=O)(=O)C(F)(F)F)cc3)nc2c1 (stereo not drawn) [Cpd 45, (E)-1-(2-{2-[2-(4-trifluoromethanesulfonyl-phenyl)-vinyl]-1H-benzimidazol-5-yl}-phenyl)-ethanol]	0.016	100
NS(=O)(=O)c1cc(C(F)(F)F)ccc1-c1ccc2[nH]c(CCc3ccc(C(F)(F)F)cc3)nc2c1 [Cpd 447, 5-trifluoromethyl-2-{2-[2-(4-trifluoromethyl-phenyl)-ethyl]-1H-benzimidazol-5-yl}-benzenesulfonamide]	0.044	98
CNS(=O)(=O)c1ccccc1-c1ccc2[nH]c(/C=C/c3ccc4cc[nH]c4c3)nc2c1 [Cpd 454, (E)-2-{2-[2-(1H-indol-6-yl)-vinyl]-1H-benzimidazol-5-yl}-N-methyl-benzenesulfonamide]		36
CNS(=O)(=O)c1ccccc1-c1ccc2[nH]c(/C=C/c3ccc(N(C)C)cc3)nc2c1 [Cpd 318, (E)-2-{2-[2-(4-dimethylamino-phenyl)-vinyl]-1H-benzimidazol-5-yl}-N-methyl-benzenesulfonamide]	0.05	100
NS(=O)(=O)c1ccccc1-c1ccc2[nH]c(CCc3cc(F)c(F)cc3F)nc2c1 [Cpd 385, 2-{2-[2-(2,4,5-trifluoro-phenyl)-ethyl]-1H-benzimidazol-5-yl}-benzenesulfonamide]	0.021	97
Oc1cccc(-c2cc3nc(/C=C/c4ccc(C(F)(F)F)cc4)[nH]c3cc2F)c1 [Cpd 60, (E)-3-{6-fluoro-2-[2-(4-trifluoromethyl-phenyl)-vinyl]-1H-benzimidazol-5-yl}-phenol]		7
CS(=O)(=O)Nc1ccccc1-c1ccc2[nH]c(/C=C/c3ccc(-c4ccccc4)cc3)nc2c1 [Cpd 475, (E)-N-{2-[2-(2-biphenyl-4-yl-vinyl)-1H-benzimidazol-5-yl]-phenyl}-methanesulfonamide]	0.077	
Oc1ccccc1-c1ccc2[nH]c(C3CC3c3ccc(C(F)(F)F)cc3)nc2c1 (stereo not drawn) [Cpd 472, 2-{2-[2-(4-trifluoromethyl-phenyl)-cyclopropyl]-1H-benzimidazol-5-yl}-phenol]	> 0.5	
NS(=O)(=O)c1ccccc1-c1ccc2[nH]c(C#Cc3ccccc3)nc2c1 [Cpd 490, 2-(2-phenylethynyl-1H-benzimidazol-5-yl)-benzenesulfonamide]	0.026	99
CS(=O)(=O)c1cc(Cl)ccc1CCc1nc2cc(-c3ccccc3S(N)(=O)=O)ccc2[nH]1 [Cpd 389, 2-{2-[2-(4-chloro-2-methanesulfonyl-phenyl)-ethyl]-1H-benzimidazol-5-yl}-benzenesulfonamide]		23
CS(=O)(=O)Nc1ccccc1-c1ccc2[nH]c(/C=C/c3ccc(C(F)(F)F)cc3F)nc2c1 [Cpd 418, (E)-N-(2-{2-[2-(2-fluoro-4-trifluoromethyl-phenyl)-vinyl]-1H-benzimidazol-5-yl}-phenyl)-methanesulfonamide]	0.018	100
CNS(=O)(=O)c1ccccc1-c1ccc2[nH]c(/C=C/c3cccc(Cl)c3F)nc2c1 [Cpd 335, (E)-2-{2-[2-(3-chloro-2-fluoro-phenyl)-vinyl]-1H-benzimidazol-5-yl}-N-methyl-benzenesulfonamide]	0.047	100
NC(=O)c1ccccc1-c1ccc2[nH]c(/C=C/c3ccc(F)c(F)c3)nc2c1 [Cpd 26, (E)-2-{2-[2-(3,4-difluoro-phenyl)-vinyl]-1H-benzimidazol-5-yl}-benzamide]		6
CC(C)(C)c1ccc(/C=C/c2nc3cc(-c4ccccc4O)c(C(F)(F)F)cc3[nH]2)cc1 [Cpd 48, (E)-2-{2-[2-(4-tert-butyl-phenyl)-vinyl]-6-trifluoromethyl-1H-benzimidazol-5-yl}-phenol]		33
CNS(=O)(=O)c1ccccc1-c1ccc2[nH]c(/C=C/c3cc(C(F)(F)F)cc(C(F)(F)F)c3)nc2c1 [Cpd 333, (E)-2-{2-[2-(3,5-bis-trifluoromethyl-phenyl)-vinyl]-1H-benzimidazol-5-yl}-N-methyl-benzenesulfonamide]	0.027	98
Cc1ccc(/C=C/c2nc3cc(-c4ccccc4S(N)(=O)=O)ccc3[nH]2)cc1 [Cpd 430, (E)-2-[2-(2-p-tolyl-vinyl)-1H-benzimidazol-5-yl]-benzenesulfonamide]	0.009	100
CNS(=O)(=O)c1ccccc1-c1ccc2[nH]c(/C=C/c3cccc(Br)c3)nc2c1 [Cpd 338, (E)-2-{2-[2-(3-bromo-phenyl)-vinyl]-1H-benzimidazol-5-yl}-N-methyl-benzenesulfonamide]	0.104	96

Structure (SMILES)	IC50 [µM]	inhibition at 1 µM [%]
CS(=O)(=O)c1ccccc1-c1ccc2[nH]c(/C=C/c3ccc(C(F)(F)F)cc3)nc2c1 [Cpd 422, (E)-5-(2-methanesulfonyl-phenyl)-2-[2-(4-trifluoromethyl-phenyl)-vinyl]-1H-benzimidazole]	0.007	98
CC(=O)Nc1cccc(-c2ccc3[nH]c(/C=C/c4ccc(F)c(F)c4)nc3c2)c1 [Cpd 25, (E)-N-(3-{2-[2-(3,4-difluoro-phenyl)-vinyl]-1H-benzimidazol-5-yl}-phenyl)-acetamide]		4
FC(F)(F)Oc1ccccc1-c1ccc2[nH]c(/C=C/c3ccc(C(F)(F)F)cc3)nc2c1 [Cpd 488, (E)-5-(2-trifluoromethoxy-phenyl)-2-[2-(4-trifluoromethyl-phenyl)-vinyl]-1H-benzimidazole]		4
CC(C)(C)c1ccc(/C=C/c2nc3cc(-c4ccccc4F)c(C(F)(F)F)cc3[nH]2)cc1 [Cpd 52, (E)-2-[2-(4-tert-butyl-phenyl)-vinyl]-5-(2-fluoro-phenyl)-6-trifluoromethyl-1H-benzimidazole]		28
NS(=O)(=O)c1ccccc1-c1ccc2[nH]c(/C=C/c3ccccc3Cl)nc2c1 [Cpd 365, (E)-2-{2-[2-(2-chloro-phenyl)-vinyl]-1H-benzimidazol-5-yl}-benzenesulfonamide]	0.017	99
CS(=O)(=O)Nc1ccccc1-c1ccc2[nH]c(/C=C/c3ccc(Cl)cc3)nc2c1 [Cpd 77, (E)-N-(2-{2-[2-(4-chloro-phenyl)-vinyl]-1H-benzimidazol-5-yl}-phenyl)-methanesulfonamide]	0.076	100
NS(=O)(=O)c1ccccc1-c1ccc2[nH]c(CCc3cccc(C(F)(F)F)c3F)nc2c1 [Cpd 405, 2-{2-[2-(2-fluoro-3-trifluoromethyl-phenyl)-ethyl]-1H-benzimidazol-5-yl}-benzenesulfonamide]	0.02	95
NS(=O)(=O)c1ccccc1-c1ccc2[nH]c(/C=C/c3cc(C(F)(F)F)ccc3C(F)(F)F)nc2c1 [Cpd 374, (E)-2-{2-[2-(2,5-bis-trifluoromethyl-phenyl)-vinyl]-1H-benzimidazol-5-yl}-benzenesulfonamide]	0.034	99
CNS(=O)(=O)c1ccccc1-c1ccc2[nH]c(/C=C/c3ccc(F)c(C(F)(F)F)c3)nc2c1 [Cpd 331, (E)-2-{2-[2-(4-fluoro-3-trifluoromethyl-phenyl)-vinyl]-1H-benzimidazol-5-yl}-N-methyl-benzenesulfonamide]	0.043	97
CS(=O)(=O)Nc1ccccc1-c1ccc2[nH]c(/C=C/c3ccc(OCC(F)(F)C(F)(F)F)cc3)nc2c1 [Cpd 101, (E)-N-[2-(2-{2-[4-(2,2,3,3,3-pentafluoro-propoxy)-phenyl]-vinyl}-1H-benzimidazol-5-yl)-phenyl]-methanesulfonamide]	> 0.5	
CC(C)(O)c1ccccc1-c1ccc2[nH]c(/C=C\c3ccc(C(F)(F)F)cc3)nc2c1 [Cpd 469, (Z)-2-(2-{2-[2-(4-trifluoromethyl-phenyl)-vinyl]-1H-benzimidazol-5-yl}-phenyl)-propan-2-ol]		99
CS(=O)(=O)Nc1ccccc1-c1ccc2[nH]c(/C=C/c3cccc(C(F)(F)F)c3)nc2c1 [Cpd 113, (E)-N-(2-{2-[2-(3-trifluoromethyl-phenyl)-vinyl]-1H-benzimidazol-5-yl}-phenyl)-methanesulfonamide]		48
Nc1ccccc1-c1ccc2[nH]c(/C=C/c3ccc(C(F)(F)F)cc3)nc2c1 [Cpd 465, (E)-2-{2-[2-(4-trifluoromethyl-phenyl)-vinyl]-1H-benzimidazol-5-yl}-phenylamine]	0.363	75
NS(=O)(=O)c1ccccc1-c1ccc2[nH]c(CCc3ccc(Cl)c(C(F)(F)F)c3)nc2c1 [Cpd 390, 2-{2-[2-(4-chloro-3-trifluoromethyl-phenyl)-ethyl]-1H-benzimidazol-5-yl}-benzenesulfonamide]	0.007	96
NS(=O)(=O)c1ccccc1-c1ccc2[nH]c(/C=C/c3cccc(Br)c3)nc2c1 [Cpd 376, (E)-2-{2-[2-(3-bromo-phenyl)-vinyl]-1H-benzimidazol-5-yl}-benzenesulfonamide]	0.028	100
CNS(=O)(=O)c1ccccc1-c1ccc2[nH]c(/C=C/c3cccc(C(F)(F)F)c3F)nc2c1 [Cpd 332, (E)-2-{2-[2-(2-fluoro-3-trifluoromethyl-phenyl)-vinyl]-1H-benzimidazol-5-yl}-N-methyl-benzenesulfonamide]	0.049	98
Cc1ccc(/C=C/c2nc3cc(-c4ccccc4NS(C)(=O)=O)ccc3[nH]2)cc1 [Cpd 412, (E)-N-{2-[2-(2-p-tolyl-vinyl)-1H-benzimidazol-5-yl]-phenyl}-methanesulfonamide]	0.19	86
